Experimental data reported in ChEMBL document CHEMBL6178023 (J Med Chem, 2025).
Values after ≈ are worked out from the molar mass of the structure shown. Active and inactive are the calls of the source. The rule behind the calls is not given here.

Tests used:
Chikungunya virus [1] = experiment: Antiviral activity against CHIKV 181/25 expressing nLuc-capsid gene infected in human MRC5 cells assessed as reduction in viral replication preincubated with cells for 1 hr followed by viral infection measured after 6 hrs post-infection by Nano-glo luciferase assay; assay type: functional, organism-based
MRC5 = experiment: Cytotoxicity against human MRC5 cells at 10 to 40 uM by Cell Titer Glo assay; assay type: toxicity, cell-based; details: mrc5, 40 µM, dose 10-40 µM
[2] = Aqueous solubility of compound in PBS at pH 7.4; assay type: physicochemical
Polyprotein P1234 = Polyprotein P1234 (Chikungunya virus (strain S27-African prototype) (CHIKV), UniProt Q8JUX6); experiment: Inhibition of N-terminal 6-His/SUMO-tagged CHIKV 181/25 nsP2 extracted from Escherichia coli Rosetta 2 preincubated for 30 mins followed by ATP addition measured after 1 hr by ADP-Glo assay
Chikungunya virus [3] = experiment: Inhibition of N-terminal 6-His/SUMO-tagged CHIKV 181/25 nsP2 extracted from Escherichia coli Rosetta 2 at 200 uM preincubated for 30 mins followed by ATP addition measured after 1 hr by ADP-Glo assay relative to control; details: time 90.0 min
[4] = 181/25, MRC5, read-out: pEC50 (converted)

Chain of Polyprotein P1234 (Q8JUX6 536-1333 limits assumed): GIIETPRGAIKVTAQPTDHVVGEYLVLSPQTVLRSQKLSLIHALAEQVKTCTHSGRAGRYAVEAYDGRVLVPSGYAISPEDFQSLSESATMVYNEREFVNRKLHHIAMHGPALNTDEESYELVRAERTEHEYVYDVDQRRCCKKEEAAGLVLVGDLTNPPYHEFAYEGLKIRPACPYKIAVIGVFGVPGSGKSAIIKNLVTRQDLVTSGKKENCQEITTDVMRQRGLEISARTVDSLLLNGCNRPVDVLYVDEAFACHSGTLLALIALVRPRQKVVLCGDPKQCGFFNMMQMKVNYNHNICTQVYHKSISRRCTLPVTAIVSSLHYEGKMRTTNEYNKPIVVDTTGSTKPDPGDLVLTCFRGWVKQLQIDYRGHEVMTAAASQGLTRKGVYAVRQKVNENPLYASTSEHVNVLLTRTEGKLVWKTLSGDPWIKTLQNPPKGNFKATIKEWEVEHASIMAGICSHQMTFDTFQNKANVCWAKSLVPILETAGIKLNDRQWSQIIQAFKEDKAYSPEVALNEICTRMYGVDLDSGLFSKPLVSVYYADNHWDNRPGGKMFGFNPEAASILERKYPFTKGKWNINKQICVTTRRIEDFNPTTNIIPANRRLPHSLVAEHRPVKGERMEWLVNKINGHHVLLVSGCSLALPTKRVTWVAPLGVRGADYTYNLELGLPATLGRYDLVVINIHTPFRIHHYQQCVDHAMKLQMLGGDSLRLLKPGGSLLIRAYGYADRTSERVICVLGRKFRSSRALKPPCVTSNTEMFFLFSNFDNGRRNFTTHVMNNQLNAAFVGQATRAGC

Structure (SMILES)	EC50 (Chikungunya virus [1]; [4]) [µM]	Activity (MRC5)	solubility kinetic [2] [µM]	IC50 (Polyprotein P1234) [µM]	inhibition (Chikungunya virus [3])	EC50 (Chikungunya virus [1]; 181/25, MRC5, read-out: EC50) [µM]
CN(CC1CCOC2(CCN(C(=O)C3(c4ccccc4)CCCC3)CC2)C1)S(C)(=O)=O (configuration not stated)	1.26	Non-toxic	180 (≈ 80.8 µg/mL)	3.16		
CN(C)S(=O)(=O)N(C)CC1CCOC2(CCN(C(=O)C3(c4ccccc4)CCCC3)CC2)C1 (configuration not stated)	1.58	Non-toxic	160 (≈ 76.4 µg/mL)	5.01		
O=C(NCC1CCOC2(CCN(C(=O)C3(c4ccccc4)CCCC3)CC2)C1)C1CCCCC1 (configuration not stated)	2.51	Non-toxic	130 (≈ 60.7 µg/mL)	31.6		
CN(C)S(=O)(=O)NCC1CCOC2(CCN(C(=O)C3(c4cccc(C(F)(F)F)c4)CCCC3)CC2)C1 (configuration not stated)	100	Non-toxic		> 39.8	40%	
O=C(N1CCC2(CC1)CC(Nc1ccccc1)CCO2)C1(c2ccccc2)CCCC1 (configuration not stated)	5.01	Non-toxic	20 (≈ 8.37 µg/mL)	15.8		
NC(=O)NCC1CCOC2(CCN(C(=O)C3(c4ccccc4)CCCC3)CC2)C1 (configuration not stated)	12.6	Non-toxic	190 (≈ 75.9 µg/mL)	> 39.8	50%	
O=C(N1CCC2(CC1)CC(CNS(=O)(=O)C1CC1)CCO2)C1(c2ccccc2)CCCC1 (configuration not stated)	3.98	Non-toxic	180 (≈ 82.9 µg/mL)	20		
O=C1CCCN1CC1CCOC2(CCN(C(=O)C3(c4ccccc4)CCCC3)CC2)C1 (configuration not stated)	2.51	Non-toxic	200 (≈ 84.9 µg/mL)	> 39.8	90%	
O=C(CCCCl)NCC1CCOC2(CCN(C(=O)C3(c4ccccc4)CCCC3)CC2)C1 (configuration not stated)	0.316	Non-toxic	170 (≈ 78.4 µg/mL)	2		
O=C1CCC(=O)N1CC1CCOC2(CCN(C(=O)C3(c4ccccc4)CCCC3)CC2)C1 (configuration not stated)	1	Non-toxic	160 (≈ 70.2 µg/mL)	1.26		
O=C(N1CCC2(CC1)CC(CN1CCCCS1(=O)=O)CCO2)C1(c2ccccc2F)CCCC1 (configuration not stated)	0.251	Non-toxic	190 (≈ 93.6 µg/mL)	1		
CN(C)S(=O)(=O)NCC1CCOC2(CCN(C(=O)C3(c4ccccc4Cl)CCCC3)CC2)C1 (configuration not stated)	1.26	Non-toxic		7.94		
O=C(NCC1CCOC2(CCN(C(=O)C3(c4ccccc4)CCCC3)CC2)C1)c1ccccc1 (configuration not stated)	2.51	Non-toxic	70 (≈ 32.2 µg/mL)	15.8		
COc1cccc(C2(C(=O)N3CCC4(CC3)CC(CNS(=O)(=O)N(C)C)CCO4)CCCC2)c1 (configuration not stated)	6.31	Non-toxic		> 39.8	80%	
O=C(N1CCC2(CC1)CC(CNCc1ccccc1)CCO2)C1(c2ccccc2)CCCC1 (configuration not stated)	10	Non-toxic	180 (≈ 80.4 µg/mL)	> 39.8		
Cc1cccc(C2(C(=O)N3CCC4(CC3)CC(CNS(=O)(=O)N(C)C)CCO4)CCCC2)c1 (configuration not stated)	3.98	Non-toxic		> 39.8	90%	
O=C(NCC1CCOC2(CCN(C(=O)C3(c4ccccc4)CCCC3)CC2)C1)c1cccnc1 (configuration not stated)	2.51	Non-toxic	90 (≈ 41.5 µg/mL)	12.6		
O=C(N1CCC2(CC1)CC(CN1CCCCS1(=O)=O)CCO2)C1(c2cc(F)cc(F)c2)CCCC1 (configuration not stated)	0.1	Non-toxic	4 (≈ 2.04 µg/mL)	0.398		
O=C(NCC1CCOC2(CCN(C(=O)C3(c4ccccc4)CCCC3)CC2)C1)c1ccncc1 (configuration not stated)	10	Non-toxic	170 (≈ 78.5 µg/mL)	> 39.8	70%	

Structure (SMILES)	EC50 (Chikungunya virus [1]; [4]) [µM]	Activity (MRC5)	solubility kinetic [2] [µM]	IC50 (Polyprotein P1234) [µM]	inhibition (Chikungunya virus [3])	EC50 (Chikungunya virus [1]; 181/25, MRC5, read-out: EC50) [µM]
COc1cccc(C(=O)NCC2CCOC3(CCN(C(=O)C4(c5ccccc5)CCCC4)CC3)C2)c1 (configuration not stated)	5.01	Non-toxic	19 (≈ 9.32 µg/mL)	> 39.8	70%	
Cc1ccnc(NC2CCOC3(CCN(C(=O)C4(c5ccccc5)CCCC4)CC3)C2)c1 (configuration not stated)	6.31	Non-toxic	70 (≈ 30.4 µg/mL)	> 39.8	70%	
CCS(=O)(=O)NCC1CCOC2(CCN(C(=O)C3(c4ccccc4)CCCC3)CC2)C1 (configuration not stated)	3.16	Non-toxic	230 (≈ 103 µg/mL)	> 39.8	70%	
CCN(C)S(=O)(=O)NCC1CCOC2(CCN(C(=O)C3(c4ccccc4)CCCC3)CC2)C1 (configuration not stated)	3.98	Non-toxic	160 (≈ 76.4 µg/mL)	15.8		
O=C(N1CCC2(CC1)CC(CNS(=O)(=O)CCCCCl)CCO2)C1(c2ccccc2)CCCC1 (configuration not stated)	1.26	Non-toxic	60 (≈ 30.7 µg/mL)	10		
CS(=O)(=O)NCC1CCOC2(CCN(C(=O)C3(c4cccc(Cl)c4)CCCC3)CC2)C1 (configuration not stated)	2.51	Non-toxic		20		
CS(=O)(=O)N(Cc1ccccc1)CC1CCOC2(CCN(C(=O)C3(c4ccccc4)CCCC3)CC2)C1 (configuration not stated)	10	Non-toxic	< 1		inactive	
CN(CC1CCOC2(CCN(C(=O)C3(c4ccccc4)CCCC3)CC2)C1)S(=O)(=O)CCCCl (configuration not stated)	0.398	Non-toxic	50 (≈ 25.6 µg/mL)	1		
COc1ccc(NC(=O)NCC2CCOC3(CCN(C(=O)C4(c5ccccc5)CCCC4)CC3)C2)cc1 (configuration not stated)	3.98	Non-toxic	10 (≈ 5.06 µg/mL)	20		
COc1ccc(C(=O)NCC2CCOC3(CCN(C(=O)C4(c5ccccc5)CCCC4)CC3)C2)cc1 (configuration not stated)	3.98	Non-toxic	35 (≈ 17.2 µg/mL)	20		
CN(C)S(=O)(=O)NCC1CCOC2(CCN(C(=O)C3(c4ccccc4F)CCCC3)CC2)C1 (configuration not stated)	5.01	Non-toxic		31.6		
O=C(NCC1CCOC2(CCN(C(=O)C3(c4ccccc4)CCCC3)CC2)C1)Nc1ccccc1 (configuration not stated)	1.26	Non-toxic	10 (≈ 4.76 µg/mL)	15.8		
O=c1nc(NO)ccn1[C@@H]1O[C@H](CO)[C@@H](O)[C@H]1O [N-HYDROXYCYTIDINE]						1.2
CCCCCCN(CC1CCOC2(CCN(C(=O)C3(c4ccccc4)CCCC3)CC2)C1)S(C)(=O)=O (configuration not stated)	1.58	Non-toxic	< 1	12.6		
O=C(N1CCC2(CC1)CC(CNCC(F)(F)F)CCO2)C1(c2ccccc2)CCCC1 (configuration not stated)	12.6	Non-toxic	170 (≈ 74.6 µg/mL)	> 39.8		
O=C(N1CCC2(CC1)CC(CNS(=O)(=O)CCCCl)CCO2)C1(c2ccccc2)CCCC1 (configuration not stated)	0.631	Non-toxic	100 (≈ 49.7 µg/mL)	2		
CCCCCC(=O)NCC1CCOC2(CCN(C(=O)C3(c4ccccc4)CCCC3)CC2)C1 (configuration not stated)	2	Non-toxic	60 (≈ 27.3 µg/mL)	6.31		
O=C(N1CCC2(CC1)CC(CN1CCCS1(=O)=O)CCO2)C1(c2ccccc2)CCCC1 (configuration not stated)	0.398	Non-toxic	> 220	1.58		
COc1ccccc1NC(=O)NCC1CCOC2(CCN(C(=O)C3(c4ccccc4)CCCC3)CC2)C1 (configuration not stated)	3.98	Non-toxic	< 10		inactive	
